Reference: patent publication US6921532B1, “Biological Bioadhesive composition and methods of preparation and use” (Spinal Restoration, Inc., priority 2000, dated 2005)

Assay: Solubility / suspension in thrombin reconstituting solution
Settings: aqueous calcium chloride reconstituting solution
Description: Blended betamethasone sodium phosphate and acetate solutions preferably include anti-caking agent(s) and low calcium chloride concentration(s).

## C[C@H]1C[C@H]2[C@@H]3CCC4=CC(=O)C=C[C@]4(C)[C@@]3(F)[C@@H](O)C[C@]2(C)[C@@]1(O)C(=O)COP(=O)([O-])[O-].[Na+].[Na+] [betamethasone sodium phosphate]
  solubility: reduced in the presence of aqueous calcium chloride
